Literature values as cited in patent US20080254143A1, “COMPOSITION FOR IMPROVING IMMUNE SYSTEM HEALTH” (priority 2007, published 2008).

Key:
common cold [1] = conditions: administered or recruited within 24 hrs of the onset of symptoms
common cold [2] = conditions: daily supplementation, amounts greater than 100 mg
rhinovirus = conditions: prevents formation of viral capsid proteins
TNF-α = conditions: activated macrophages (LPS/IFN-gamma-activated RAW 264.7)

Compound	duration and severity of symptoms of a common cold (common cold [1])	other results
CC(=O)[O-].CC(=O)[O-].[Zn+2] [Zinc acetate]	reduce the duration and overall severity	
O=S(=O)([O-])[O-].[Zn+2] [Zinc sulphate]	reduce the duration and overall severity	
O=C1O[C@H]([C@@H](O)CO)C(O)=C1O [ascorbic acid, L-ascorbic acid]		incidence, severity and integrated morbidity of the common cold (common cold [2]): lowers the incidence, severity and integrated morbidity
[Zn] [zinc, Zinc]	reducing the duration and severity	in vitro replication of the rhinovirus (rhinovirus): inhibits in vitro replication
Anthocyanins		TNF-α production (TNF-α): induce TNF-α production
